# Values of other authors as cited in patent publication US6245354A, “Drug delivery system using galactoxyloglucan” (Dainippon Pharmaceutical Co., Ltd., priority 1996, dated 2001).
smiles,measurement,setting,value
CO[C@@]12[C@H](COC(N)=O)C3=C(C(=O)C(C)=C(N)C3=O)N1C[C@@H]1N[C@@H]12 [mitomycin C],transfer to systemic circulation,administered into the abdominal cavity,rapidly transferred to a systemic circulation
same,therapeutic effects,"peritoneal tumors, carcinomatous peritonitis, into the abdominal cavity",can not exhibit sufficient therapeutic effects
